Experimental data reported in patent US12303513B2, “Methods and compositions to treat cancer” (Children's Hospital Medical Center, priority 2016, dated 2025).
“Also recorded” adds a separate entry of the source.

How the values were obtained:
[1] = system: midkine protein; experiment: Inhibition of midkine protein expression (Table, FIGS. 7-12); assay type: cell-based; conditions: for Activity on protein expression: 1 uM of compound
[2] = system: endogenous midkine; experiment: Endogenous midkine expression in H441 cells by western blotting (FIG. 18A); assay type: cell-based, human; conditions: H441 lung adenocarcinoma cells, 10 μM, 24 hours
Protocol: FIG. 18. […] A. H441 lung adenocarcinoma cells were treated with iMDK and related compounds at a final concentration of 10 μM. Twenty-four hours after treatment, cells were harvest and protein expression was assessed using western blotting assay. […] B. Shown is structures of compounds #2 (also known as F6). #3 (also known as iMDK), #5, #7, and #8. C. […] DMSO was used as control.
(§1) Cell lines: The human malignant pulmonary mesothelioma cells MSTO-211H, H2452, H2052, H28 MESO-1 and MESO-4 were grown in RPMI 1640 supplemented with 10% heat-inactivated fetal bovine serum. The human pulmonary adenocarcinoma cells: H441 and the human embryonic kidney cells: HEK293 were grown in high glucose Dulbecco's modified Eagle supplemented with 10% heat-inactivated fetal bovine serum. All cell lines were cultured in 5% CO2 at 37° C.

[3] = system: MSTO211H mesothelioma cells; experiment: Cell growth, cell count with Countess II (FIGS. 14, 15); assay type: cell-based, human; conditions: 48 hours, dose-dependent, vs DMSO control
Protocol: FIG. 14. iMDK (#3) and its derivatives (A6, D9 and E6) inhibits growth of MSTO211H mesothelioma cells. MSTO211H mesothelioma cells were treated with iMDK (#3) or iMDK derivatives (A6, D9 or E6) at indicated different final concentrations.
FIG. 15. iMDK (#3) and its derivatives (F5, F6 and F7) inhibits growth of MSTO211H mesothelioma cells. MSTO211H mesothelioma cells were treated with iMDK (#3) or iMDK derivatives (F5, F6 or F7) at indicated different final concentrations.
as §1

[4] = system: MESO4 mesothelioma cells; experiment: Cell growth, cell count with Countess II (FIGS. 16, 17); assay type: cell-based, human; conditions: MESO4, 48 hours, dose-dependent, vs DMSO control
Protocol: FIG. 16. iMDK (#3) and its derivatives (A6, D9 and E6) inhibits growth of MESO4 mesothelioma cells. MESO4 mesothelioma cells were treated with iMDK (#3) or iMDK derivatives (A6, D9 or E6) at indicated different final concentrations.
FIG. 17. iMDK (#3) and its derivatives (F5, F6 and F7) inhibits growth of […] mesothelioma cells. MESO4 mesothelioma cells were treated with iMDK (#3) or iMDK derivatives (F5, F6 or F7) at indicated different final concentrations.
as §1

[5] = system: 293 cells; experiment: Cell viability, Wright-Giemsa staining (FIG. 18C), 293 cells; assay type: cell-based, human; conditions: 10 μM, 3 days after treatment
[6] = system: H441 cells; experiment: Cell viability / toxicity in H441 cells (FIGS. 18C, 19); assay type: cell-based, human; conditions: 10 μM, 3 days after treatment (not shown)
[7] = system: H2052 mesothelioma cells; experiment: Cell viability, trypan blue exclusion assay (FIG. 2), H2052; assay type: cell-based, human; conditions: H2052, 48 hours of treatment
Protocol: as §1, with “FIG. 2. iMDK suppressed cell viability of MDK expressing malignant pulmonary mesothelioma cells. […] Cell viability was assessed by trypan blue exclusion assay. Statistical significance was defined as p<0.01 (*). Cell” for “Cell”

[8] = system: MSTO-211H mesothelioma cells; experiment: Cell viability, trypan blue exclusion assay (FIG. 2), MSTO-211H; assay type: cell-based, human; conditions: 48 hours of treatment
Protocol: as §1, with “FIG. 2. iMDK suppressed cell viability of MDK expressing malignant pulmonary mesothelioma cells. […] Cell viability was assessed by trypan blue exclusion assay. Statistical significance was defined as p<0.01 (*). Cell” for “Cell”

[9] = system: H2452 mesothelioma cells; experiment: Cell viability, trypan blue exclusion assay (FIG. 2), H2452; assay type: cell-based, human; conditions: H2452, 48 hours of treatment
Protocol: as §1, with “FIG. 2. iMDK suppressed cell viability of MDK expressing malignant pulmonary mesothelioma cells. […] Cell viability was assessed by trypan blue exclusion assay. Statistical significance was defined as p<0.01 (*). Cell” for “Cell”

[10] = system: H28 mesothelioma cells; experiment: Cell viability, trypan blue exclusion assay (FIG. 2), H28; assay type: cell-based, human; conditions: H28, 48 hours of treatment
Protocol: as §1, with “FIG. 2. iMDK suppressed cell viability of MDK expressing malignant pulmonary mesothelioma cells. […] Cell viability was assessed by trypan blue exclusion assay. Statistical significance was defined as p<0.01 (*). Cell” for “Cell”

[11] = system: MSTO-211H cells; experiment: Colony formation, crystal violet staining (FIG. 3); assay type: cell-based, human; conditions: fourteen days after treatment
Protocol: as §1, with “Colony formation of MSTO-211H cells treated with iMDK. Fourteen days after the treatment, cells were fixed and stained with crystal violet. Representative images of experiments performed in triplicate are shown. Cell” for “Cell”

[12] = system: MSTO-211H cells; experiment: Apoptosis by TUNEL staining (FIG. 4); assay type: cell-based, human; conditions: 48 h treatment, dose dependent
Protocol: Cells were treated for 48 h at a indicated concentration of iMDK then TUNEL staining was performed to detect apoptosis using the DeadEnd colorimetric TUNEL system (Promega, Madison, WI) according to the manufacturer's protocol. Statistical significance was defined as p<0.01 (*). Cell lines: The human malignant pulmonary mesothelioma cells MSTO-211H, H2452, H2052, H28 MESO-1 and MESO-4 were grown in RPMI 1640 supplemented with 10% heat-inactivated fetal bovine serum. The human pulmonary adenocarcinoma cells: H441 and the human embryonic kidney cells: HEK293 were grown in high glucose Dulbecco's modified Eagle supplemented with 10% heat-inactivated fetal bovine serum. All cell lines were cultured in 5% CO2 at 37° C.

[13] = system: tumors derived from MSTO-211H cells; experiment: Malignant pleural mesothelioma xenograft mouse model (FIG. 6); assay type: in vivo; conditions: i.p., compared to control (DMSO)
Text: Eight mice were used in each group. Tumor growth is expressed as mean tumor volume; bars represent SD. Statistical significance was defined as p<0.05 (#)

[14] = system: non-small cell lung cancer expressing MDK; conditions: previously reported; cited from earlier work
[15] = system: normal cells; conditions: previously reported; cited from earlier work
[16] = system: PI3 kinase/Akt pathway; conditions: previously reported; cited from earlier work
[17] = system: MDK expressing non-small cell lung cancer cells; conditions: previously reported; cited from earlier work
[18] = system: MSTO-211H mesothelioma cells; experiment: Growth inhibition by iMDK combined with ABT263 (FIG. 5); assay type: cell-based, human; conditions: 48 hours, ABT263 plus iMDK versus each drug alone
Protocol: as §1, with “FIG. 5. ABT263 enhanced iMDK-mediated suppression of cell proliferation in MSTO-211H mesothelioma cells. […] Cell” for “Cell”

O=c1oc2ccccc2cc1-c1cn2cc(Cc3ccc(Cl)cc3)sc2n1 [Compound 1]
Concentration to inhibit midkine protein expression [1]: 1 µM | Activity on protein expression [1]: inhibits protein expression | endogenous midkine expression [2]: suppressed endogenous midkine expression | growth of cells (number of cells) [3]: significantly inhibited the growth | growth of cells (number of cells) [4]: significantly inhibited the growth | cell viability [5]: inhibited cell viability | cell viability [6]: inhibited cell viability

Cc1ccc(Cc2cn3cc(-c4cc5ccccc5oc4=O)nc3s2)cc1 [Compound 8]
Concentration to inhibit midkine protein expression [1]: 1 µM | Activity on protein expression [1]: inhibits protein expression | growth of cells (number of cells) [3]: significantly inhibited the growth | growth of cells (number of cells) [4]: significantly inhibited the growth

O=c1oc2ccccc2cc1-c1cn2cc(Cc3ccc(F)cc3)sc2n1 [iMDK, 3-[2-(4-fluorobenzyl)imidazo[2,1-b][1,3]thiazol-6-yl]-2H-chromen-2-one]
Concentration to inhibit midkine protein expression [1]: 0.1 µM | endogenous midkine expression [2]: suppressed endogenous midkine expression | growth inhibition (cell viability) [7]: Dose-dependent growth inhibition | growth inhibition (cell viability) [8]: Dose-dependent growth inhibition | growth inhibition (cell viability) [9]: Dose-dependent growth inhibition | growth inhibition (cell viability) [10]: Dose-dependent growth inhibition | colony formation [11]: suppressed colony formation | apoptosis (TUNEL positive cells) [12]: induced apoptosis; also recorded: significantly increased | Volume of the tumors ([13]; iMDK 5 mg/kg): significantly reduced | Volume of the tumors ([13]; iMDK 9 mg/kg): significantly reduced | growth of cells (number of cells) [3]: significantly inhibited the growth | growth of cells (number of cells) [4]: significantly inhibited the growth | cell viability [5]: inhibited cell viability | cell viability [6]: inhibited cell viability | suppression of non-small cell lung cancer expressing MDK [14]: suppresses | harm to normal cells [15]: without harming | PI3 kinase/Akt pathway [16]: inhibits | apoptosis [17]: induces apoptosis

O=c1oc2ccccc2cc1-c1cn2cc(Cc3ccccc3)sc2n1 [Compound 5]
Concentration to inhibit midkine protein expression [1]: 10 µM | Activity on protein expression [1]: inhibits protein expression | growth of cells (number of cells) [3]: significantly inhibited the growth | growth of cells (number of cells) [4]: significantly inhibited the growth

COc1ccc(-c2cn3cc(Cc4ccc(F)cc4)sc3n2)cc1 [Compound 10]
Concentration to inhibit midkine protein expression [1]: 10 µM | Activity on protein expression [1]: inhibits protein expression | growth of cells (number of cells) [3]: significantly inhibited the growth | growth of cells (number of cells) [4]: significantly inhibited the growth

CC1(C)CCC(c2ccc(Cl)cc2)=C(CN2CCN(c3ccc(C(=O)NS(=O)(=O)c4ccc(N[C@H](CCN5CCOCC5)CSc5ccccc5)c(S(=O)(=O)C(F)(F)F)c4)cc3)CC2)C1 [ABT-263]
growth inhibition in combination with iMDK [18]: more effective than each drug alone | growth inhibition in combination with iMDK ([18]; listed as ABT263): enhanced growth inhibition

O=c1oc2ccccc2cc1-c1cn2cc(Cc3ccc(C(F)(F)F)cc3)sc2n1 [Compound 9]
Concentration to inhibit midkine protein expression [1]: 1 µM | Activity on protein expression [1]: inhibits protein expression | growth of cells (number of cells) [3]: significantly inhibited the growth | growth of cells (number of cells) [4]: significantly inhibited the growth

COc1ccc(Cc2cn3cc(-c4cc5ccccc5oc4=O)nc3s2)cc1 [Compound 6]
Concentration to inhibit midkine protein expression [1]: 1 µM | Activity on protein expression [1]: inhibits protein expression | growth of cells (number of cells) [3]: significantly inhibited the growth | growth of cells (number of cells) [4]: significantly inhibited the growth

O=c1oc2ccccc2cc1-c1cn2cc(Cc3cccc(C(F)(F)F)c3)sc2n1 [Compound 7]
Concentration to inhibit midkine protein expression [1]: 0.1 µM
